Broadly, the Dmax is the greatest extent of degradation seen. Read a low Dmax as shallow degradation. As usually defined, the DC50 is the concentration giving 50% degradation. Lower therefore signals a more potent degrader.

From US20250206732A1, “COMPOUNDS AND METHODS FOR THE TARGETED DEGRADATION OF KRAS” (Arvinas Operations, Inc., priority 2022, published 2025) come the findings set out here.

In this assay the target is T1, AsPC-1 HiBiT-KRASG12D (Homo sapiens, UniProt P01116, G12D).
T1 construct: insert the HiBiT tag onto the N-terminus of one or more of the endogenous KRAS alleles; endogenous in cells; host or cells: AsPC-1 (ATCC CRL-1682), CRISPR-Cas9 knock-in clone, one tagged allele
T1 sequence (P01116 1-188 isoform P01116-2 G12D): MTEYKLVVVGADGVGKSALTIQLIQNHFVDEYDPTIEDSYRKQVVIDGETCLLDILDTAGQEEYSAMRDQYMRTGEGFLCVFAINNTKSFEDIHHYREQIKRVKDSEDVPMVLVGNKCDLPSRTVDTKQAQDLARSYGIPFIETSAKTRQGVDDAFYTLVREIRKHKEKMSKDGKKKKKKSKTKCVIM
Kind of assay: HiBiT degradation assay (G12D), AsPC-1 HiBiT-KRASG12D cells. The format is cell-based. Particulars: 24 hours treatment; for Dmax: ASPC1, AsPC-1 HiBiT-KRASG12D cells, maximum degradation observed; for DC50: AsPC-1 HiBiT-KRASG12D cells, HiBiT luminescence. Summed up:
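AsPC-1 cells carried a CRISPR knock-in of an N-terminal HiBiT tag on endogenous KRAS G12D. After 24 h compound treatment at 37 °C (triplicate), viability was read by alamar blue (4 h, fluorescence, normalized to DMSO). HiBiT-KRAS levels were then measured by Nano-Glo HiBiT lytic luminescence after 45 min at room temperature.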

For the compound `CCc1cccc2cc(O)cc(-c3ncc4c(N5CC6CCC(C5)N6)nc(OC[C@H]5CN(CC6CN(c7cc([C@H](C(=O)N8C[C@H](O)C[C@H]8C(=O)N[C@@H](C)c8ccc(-c9scnc9C)cc8)C(C)C)on7)C6)CCN5C)nc4c3F)c12` [Compound 162, (2S,4R)-1-[(2R)-2-[3-(3-{[(3R)-3-{[(4-{3,8-diazabicyclo[3.2.1]octan-3-yl}-7-(8-ethyl-3-hydroxynaphthalen-1-yl)-8-fluoropyrido[4,3-d]pyrimidin-2-yl)oxy]methyl}-4-methylpiperazin-1-yl]methyl}azetidin-1-yl)-1,2-oxazol-5-yl]-3-methylbutanoyl]-4-hydroxy-N-[(1S)-1-[4-(4-methyl-1,3-thiazol-5-yl)phenyl]ethyl]pyrrolidine-2-carboxamide], the Dmax lay within 20 to 60% and the DC50 is < 0.6 µM. On to `C#Cc1c(F)ccc2cc(O)cc(-c3ncc4c(N5CC6CCC(C5)N6)nc(OCCN5CCC(CCOc6cc([C@H](C(=O)N7C[C@H](O)C[C@H]7C(=O)N[C@@H](C)c7ccc(-c8scnc8C)cc7)C(C)C)on6)CC5)nc4c3F)c12` [Compound 173, (2S,4R)-1-[(2R)-2-{3-[2-(1-{2-[(4-{3,8-diazabicyclo[3.2.1]octan-3-yl}-7-(8-ethynyl-7-fluoro-3-hydroxynaphthalen-1-yl)-8-fluoropyrido[4,3-d]pyrimidin-2-yl)oxy]ethyl}piperidin-4-yl)ethoxy]-1,2-oxazol-5-yl}-3-methylbutanoyl]-4-hydroxy-N-[(1S)-1-[4-(4-methyl-1,3-thiazol-5-yl)phenyl]ethyl]pyrrolidine-2-carboxamide], for which the Dmax fell in the range of 80 to 100% and the DC50 is < 0.6 µM. With `CCc1cccc2cc(O)cc(-c3ncc4c(N5CC6CCC(C5)N6)nc(OC[C@]56CCCN5[C@H](COC(=O)N5C[C@@H](C)N(c7cc([C@@H](C(=O)N8C[C@H](O)C[C@H]8C(=O)N[C@@H](C)c8ccc(-c9scnc9C)cc8)C(C)C)on7)C[C@@H]5C)CC6)nc4c3F)c12` [Compound 297, [(3S,8R)-8-[[4-(3,8-diazabicyclo[3.2.1]octan-3-yl)-7-(8-ethyl-3-hydroxy-1-naphthyl)-8-fluoro-pyrido[4,3-d]pyrimidin-2-yl]oxymethyl]-1,2,3,5,6,7-hexahydropyrrolizin-3-yl]methyl (2S,5R)-4-[5-[(1S)-1-[(2S,4R)-4-hydroxy-2-[[(1S)-1-[4-(4-methylthiazol-5-yl)phenyl]ethyl]carbamoyl]pyrrolidine-1-carbonyl]-2-methyl-propyl]isoxazol-3-yl]-2,5-dimethyl-piperazine-1-carboxylate], the Dmax was < 20% and the DC50 was < 0.6 µM. Consider `CCc1cccc2cncc(-c3ncc4c(N5CC6CCC(C5)N6)nc(OCCN5CCC(COc6cc([C@H](C(=O)N7C[C@H](O)C[C@H]7C(=O)N[C@@H](C)c7ccc(-c8scnc8C)cc7)C(C)C)on6)CC5)nc4c3F)c12` [Compound 304], for which the DC50 was > 3 µM. Take `CCc1cccc2cc(O)cc(-c3ncc4c(N5CC6CCC(C5)N6)nc(OCCN5CCC(F)(CN6CCN(c7cnc(C(=O)N[C@H](C(=O)N8C[C@H](O)C[C@H]8C(=O)N[C@@H](C)c8ccc(-c9scnc9C)cc8)C(C)(C)C)cn7)CC6)CC5)nc4c3F)c12` [Compound 155, 5-{4-[(1-{2-[(4-{3,8-diazabicyclo[3.2.1]octan-3-yl}-7-(8-ethyl-3-hydroxynaphthalen-1-yl)-8-fluoropyrido[4,3-d]pyrimidin-2-yl)oxy]ethyl}-4-fluoropiperidin-4-yl)methyl]piperazin-1-yl}-N-[(2S)-1-[(2S,4R)-4-hydroxy-2-{[(1S)-1-[4-(4-methyl-1,3-thiazol-5-yl)phenyl]ethyl]carbamoyl}pyrrolidin-1-yl]-3,3-dimethyl-1-oxobutan-2-yl]pyrazine-2-carboxamide]: the Dmax lay within 60 to 80% and the DC50 is < 0.6 µM. On to `CCc1cccc2cc(O)cc(-c3ncc4c(N5CC6CCC(C5)N6)nc(OCCN5CCC(C(C)(C)N6CCN(c7cc([C@H](C(=O)N8C[C@H](O)C[C@H]8C(=O)N[C@@H](C)c8ccc(-c9scnc9C)cc8)C(C)C)on7)CC6)CC5)nc4c3F)c12` [Compound 186, (2S,4R)-1-[(2R)-2-(3-{4-[2-(1-{2-[(4-{3,8-diazabicyclo[3.2.1]octan-3-yl}-7-(8-ethyl-3-hydroxynaphthalen-1-yl)-8-fluoropyrido[4,3-d]pyrimidin-2-yl)oxy]ethyl}piperidin-4-yl)propan-2-yl]piperazin-1-yl}-1,2-oxazol-5-yl)-3-methylbutanoyl]-4-hydroxy-N-[(1S)-1-[4-(4-methyl-1,3-thiazol-5-yl)phenyl]ethyl] pyrrolidine-2-carboxamide], for which the Dmax was in the range of 80 to 100% and the DC50 is < 0.6 µM. Turning to `CCc1cccc2cc(O)cc(-c3ncc4c(N5CCCCCC5)nc(OC[C@]56CCCN5[C@H](COC(=O)N5CC7(C5)CN(c5cc([C@@H](C(=O)N8C[C@H](O)C[C@H]8C(=O)N[C@@H](C)c8ccc(-c9scnc9C)cc8)C(C)C)on5)C7)CC6)nc4c3F)c12` [Compound 284, [(3S,8R)-8-[[4-(azepan-1-yl)-7-(8-ethyl-3-hydroxy-1-naphthyl)-8-fluoro-pyrido[4,3-d]pyrimidin-2-yl]oxymethyl]-1,2,3,5,6,7-hexahydropyrrolizin-3-yl]methyl 6-[5-[(1S)-1-[(2S,4R)-4-hydroxy-2-[[(1S)-1-[4-(4-methylthiazol-5-yl)phenyl]ethyl]carbamoyl]pyrrolidine-1-carbonyl]-2-methyl-propyl]isoxazol-3-yl]-2,6-diazaspiro[3.3]heptane-2-carboxylate], the DC50 was > 3 µM. Take `C#Cc1c(F)ccc2cc(O)cc(-c3ncc4c(N5CC6CCC(C5)N6)nc(OCCN5CCC(C6CCN(c7cc([C@@H](C(=O)N8C[C@H](O)C[C@H]8C(=O)N[C@@H](C)c8ccc(-c9scnc9C)cc8)C(C)C)on7)CC6)CC5)nc4c3F)c12` [Compound 177, (2S,4R)-1-[(2S)-2-[3-(1′-{2-[(4-{3,8-diazabicyclo[3.2.1]octan-3-yl}-7-(8-ethynyl-7-fluoro-3-hydroxynaphthalen-1-yl)-8-fluoropyrido[4,3-d]pyrimidin-2-yl)oxy]ethyl}-[4,4′-bipiperidin]-1-yl)-1,2-oxazol-5-yl]-3-methylbutanoyl]-4-hydroxy-N-[(1S)-1-[4-(4-methyl-1,3-thiazol-5-yl)phenyl]ethyl]pyrrolidine-2-carboxamide]: the Dmax was in the range of 60 to 80% and the DC50 is < 0.6 µM. As to `CCc1cccc2cc(O)cc(-c3ncc4c(N5CC6CCC(C5)N6C=O)nc(OCCN5CCC(CC6CN(c7cc([C@H](C(=O)N8C[C@H](O)C[C@H]8C(=O)N[C@@H](C)c8ccc(-c9scnc9C)cc8)C(C)C)on7)C6)CC5)nc4c3F)c12` [Compound 246], the DC50 is > 3 µM.

For `CCc1cccc2cc(O)cc(-c3ncc4c(N5CC6CCC(C5)N6)nc(OCCN5CCC(CN6CCN(c7cc([C@H](C(=O)N8C[C@H](O)C[C@H]8C(=O)N[C@@H](C)c8ccc(-c9ccnn9C)cc8)C(C)C)on7)CC6)CC5)nc4c3F)c12` [Compound 191, (2S,4R)-1-[(2R)-2-(3-{4-[(1-{2-[(4-{3,8-diazabicyclo[3.2.1]octan-3-yl}-7-(8-ethyl-3-hydroxynaphthalen-1-yl)-8-fluoropyrido[4,3-d]pyrimidin-2-yl)oxy]ethyl}piperidin-4-yl)methyl]piperazin-1-yl}-1,2-oxazol-5-yl)-3-methylbutanoyl]-4-hydroxy-N-[(1S)-1-[4-(1-methyl-1H-pyrazol-5-yl)phenyl]ethyl]pyrrolidine-2-carboxamide], the Dmax fell in the range of 80 to 100% and the DC50 was < 0.6 µM. In the case of `CCc1cccc2cc(O)cc(-c3ncc4c(N5CC6CCC(C5)N6)nc(OC[C@]56CCCN5[C@@H](COc5cc([C@@H](C(=O)N7C[C@H](O)C[C@H]7C(=O)N[C@@H](C)c7ccc(-c8scnc8C)cc7)C(C)C)on5)CC6)nc4c3F)c12` [Compound 28, (2S,4R)-1-[(2S)-2-(3-{[(3R,7aR)-7a-{[(4-{3,8-diazabicyclo[3.2.1]octan-3-yl}-7-(8-ethyl-3-hydroxynaphthalen-1-yl)-8-fluoropyrido[4,3-d]pyrimidin-2-yl)oxy]methyl}-hexahydro-1H-pyrrolizin-3-yl]methoxy}-1,2-oxazol-5-yl)-3-methylbutanoyl]-4-hydroxy-N-[(1S)-1-[4-(4-methyl-1,3-thiazol-5-yl)phenyl]ethyl]pyrrolidine-2-carboxamide], the DC50 was > 3 µM. In the case of `C#Cc1c(F)ccc2cc(O)cc(-c3ncc4c(N5CC6CCC(C5)N6)nc(OC[C@]56CCCN5[C@H](COC(=O)N5CC(Oc7cc([C@H](C(=O)N8C[C@H](O)C[C@H]8C(=O)N[C@@H](C)c8ccc(-c9scnc9C)cc8)C(C)C)on7)C5)CC6)nc4c3F)c12` [Compound 292], the Dmax is 80 to 100% and the DC50 is < 0.6 µM. As to `Cc1ncsc1-c1ccc([C@H](C)NC(=O)[C@@H]2C[C@@H](O)CN2C(=O)[C@@H](c2cc(N3CCN(C(=O)OC[C@@H]4CC[C@@]5(COc6nc(N7CC8CCC(C7)N8)c7cnc(-c8cccc9ccc(F)c(F)c89)c(F)c7n6)CCCN45)CC3)no2)C(C)C)cc1` (relative stereo) [Compound 269, ((3S,7aR)-7a-(((4-((1R,5S)-3,8-diazabicyclo[3.2.1]octan-3-yl)-7-(7,8-difluoronaphthalen-1-yl)-8-fluoropyrido[4,3-d]pyrimidin-2-yl)oxy)methyl)hexahydro-1H-pyrrolizin-3-yl)methyl 4-(5-((R)-1-((2S,4R)-4-hydroxy-2-(((S)-1-(4-(4-methylthiazol-5-yl)phenyl)ethyl)carbamoyl)pyrrolidin-1-yl)-3-methyl-1-oxobutan-2-yl)isoxazol-3-yl) piperazine-1-carboxylate], the Dmax was 60 to 80% and the DC50 is < 0.6 µM.
